In ChEMBL document CHEMBL4270535, “Facile synthesis of vanillin-based novel bischalcones identifies one that induces apoptosis and displays synergy with Artemisinin in killing chloroquine resistant Plasmodium falciparum” (Eur J Med Chem, 2018):
The source made the active and inactive calls. The rule behind the calls is not given here.

Assays:
Plasmodium falciparum [1] = assay: Synergistic antiplasmodial activity against synchronized ring stage of chloroquine-resistant Plasmodium falciparum INDO infected in human erythrocytes assessed as parasite growth inhibition at 2 times FIC100 treated for 6 to 48 hrs followed by compound wash out measured after 48 to 90 hrs in presence of chloroquine by Giemsa staining based microscopic analysis; type: functional, organism-based
Plasmodium falciparum [2] = assay: Induction of apoptosis in synchronized trophozoite stage of chloroquine-resistant Plasmodium falciparum INDO infected in human erythrocytes assessed as translocation of phosphatidylserine from inner to outer leaflet of plasma membrane at 8 uM after 12 hrs by Annexin-V/Alexa fluor-488 staining based flow cytometry; type: functional, organism-based
Plasmodium falciparum [3] = assay: Synergistic antiplasmodial activity against synchronized schizont stage of chloroquine-resistant Plasmodium falciparum INDO infected in human erythrocytes assessed as parasite growth inhibition at FIC90 treated for 12 hrs followed by compound wash out measured after 48 hrs in presence of artemisinin by Giemsa staining based microscopic analysis; type: functional, organism-based
Plasmodium falciparum [4] = assay: Induction of apoptosis in synchronized trophozoite stage of chloroquine-resistant Plasmodium falciparum INDO infected in human erythrocytes assessed as chromatin fragmentation at 8 uM after 24 hrs by agarose gel electrophoresis method; type: functional, organism-based
Plasmodium falciparum [5] = assay: Induction of apoptosis in synchronized trophozoite stage of chloroquine-resistant Plasmodium falciparum INDO infected in human erythrocytes assessed as chromatin fragmentation at 8 uM by Hoechst 33342 staining based fluorescence microscopic analysis; type: functional, organism-based; conditions: TDE = time-dependent effect
[6] = Resistance index, ratio of IC50 for synchronized ring stage of chloroquine-resistant Plasmodium falciparum INDO infected in human erythrocytes to IC50 for synchronized ring stage of chloroquine-sensitive Plasmodium falciparum 3D7 infected in human erythrocytes; type: functional
Plasmodium falciparum [7] = assay: Synergistic plasmodicidal activity against synchronized trophozoite stage of chloroquine-resistant Plasmodium falciparum INDO infected in human erythrocytes assessed as parasite killing at 2 times FIC100 treated for 18 to 24 hrs followed by compound wash out measured after 48 to 54 hrs followed by compound wash out measured after 48 to 54 hrs in presence of artemisinin by Giemsa staining based microscopic analysis; type: functional, organism-based
Plasmodium falciparum [8] = assay: Synergistic antiplasmodial activity against synchronized ring stage of chloroquine-resistant Plasmodium falciparum INDO infected in human erythrocytes assessed as FIC index in presence of artemisinin; type: functional
Plasmodium falciparum [9] = assay: Synergistic plasmodicidal activity against synchronized ring stage of chloroquine-resistant Plasmodium falciparum INDO infected in human erythrocytes assessed as parasite killing at FIC90 treated for 6 to 48 hrs followed by compound wash out measured after 48 to 90 hrs followed by compound wash out measured after 48 to 90 hrs in presence of chloroquine by Giemsa staining based microscopic analysis; type: functional, organism-based
Plasmodium falciparum [10] = assay: Synergistic antiplasmodial activity against synchronized ring stage of chloroquine-resistant Plasmodium falciparum INDO infected in human erythrocytes assessed as FIC index in presence of chloroquine; type: functional
Plasmodium falciparum [11] = assay: Plasmodicidal activity against synchronized ring stage of chloroquine-resistant Plasmodium falciparum INDO infected in human erythrocytes assessed as parasite killing at 8 uM treated for 6 to 48 hrs followed by compound wash out measured after 48 to 90 hrs by Giemsa staining based microscopic analysis; type: functional, organism-based
Plasmodium falciparum [12] = assay: Induction of apoptosis in synchronized trophozoite stage of chloroquine-resistant Plasmodium falciparum INDO infected in human erythrocytes assessed as parasite killing at 8 uM up to 24 hrs by Giemsa staining based microscopic analysis; type: functional, organism-based
Plasmodium falciparum [13] = assay: Antiplasmodial activity against synchronized schizont stage of chloroquine-resistant Plasmodium falciparum INDO infected in human erythrocytes assessed as parasite growth inhibition at 8 uM treated for 12 hrs by Giemsa staining based microscopic analysis; type: functional, organism-based
Plasmodium falciparum [14] = assay: Synergistic antiplasmodial activity against synchronized ring stage of chloroquine-sensitive Plasmodium falciparum 3D7 infected in human erythrocytes assessed as FIC index in presence of chloroquine; type: functional
Plasmodium falciparum [15] = assay: Synergistic antiplasmodial activity against synchronized ring stage of chloroquine-sensitive Plasmodium falciparum 3D7 infected in human erythrocytes assessed as ratio of IC50 in absence of artemisinin to IC50 in presence of artemisinin; type: functional
Plasmodium falciparum [16] = assay: Induction of mitochondrial membrane potential loss in synchronized trophozoite stage of chloroquine-resistant Plasmodium falciparum INDO infected in human erythrocytes at 8 uM after 18 to 24 hrs by fluorescence microscopic analysis; type: functional, organism-based
Plasmodium falciparum [17] = assay: Plasmodicidal activity against synchronized schizont stage of chloroquine-resistant Plasmodium falciparum INDO infected in human erythrocytes assessed as parasite killing at 8 uM treated for 12 hrs followed by compound wash out measured after 48 hrs by Giemsa staining based microscopic analysis; type: functional, organism-based
Plasmodium falciparum [18] = assay: Antiplasmodial activity against synchronized ring stage of chloroquine-sensitive Plasmodium falciparum 3D7 infected in human erythrocytes after 48 hrs by SYBR Green 1 dye based fluorescence assay; type: functional, organism-based; conditions: 3D7, 48 h
[19] = Resistance index, ratio of IC50 for synchronized ring stage of chloroquine-resistant Plasmodium falciparum Dd2 infected in human erythrocytes to IC50 for synchronized ring stage of chloroquine-sensitive Plasmodium falciparum 3D7 infected in human erythrocytes; type: functional
Plasmodium falciparum [20] = assay: Antiplasmodial activity against synchronized trophozoite stage of chloroquine-resistant Plasmodium falciparum INDO infected in human erythrocytes assessed as parasite growth inhibition at 8 uM treated for 18 to 24 hrs by Giemsa staining based microscopic analysis; type: functional, organism-based
Plasmodium falciparum [21] = assay: Synergistic plasmodicidal activity against synchronized schizont stage of chloroquine-resistant Plasmodium falciparum INDO infected in human erythrocytes assessed as parasite killing at 2 times FIC100 treated for 12 hrs followed by compound wash out measured after 48 hrs in presence of artemisinin by Giemsa staining based microscopic analysis; type: functional, organism-based
Plasmodium falciparum [22] = assay: Plasmodicidal activity against synchronized trophozoite stage of chloroquine-resistant Plasmodium falciparum INDO infected in human erythrocytes assessed as parasite killing at 8 uM treated for 18 to 24 hrs followed by compound wash out measured after 48 to 54 hrs by Giemsa staining based microscopic analysis; type: functional, organism-based
Plasmodium falciparum [23] = assay: Synergistic plasmodicidal activity against synchronized ring stage of chloroquine-resistant Plasmodium falciparum INDO infected in human erythrocytes assessed as parasite killing at 2 times FIC100 treated for 6 to 48 hrs followed by compound wash out measured after 48 to 90 hrs followed by compound wash out measured after 48 to 90 hrs in presence of artemisinin by Giemsa staining based microscopic analysis; type: functional, organism-based
Plasmodium falciparum [24] = assay: Synergistic antiplasmodial activity against synchronized ring stage of chloroquine-resistant Plasmodium falciparum INDO infected in human erythrocytes assessed as parasite growth inhibition at FIC90 treated for 6 to 48 hrs followed by compound wash out measured after 48 to 90 hrs in presence of artemisinin by Giemsa staining based microscopic analysis; type: functional, organism-based
Plasmodium falciparum [25] = assay: Antiplasmodial activity against synchronized ring stage of chloroquine-resistant Plasmodium falciparum INDO infected in human erythrocytes after 48 hrs by SYBR Green 1 dye based fluorescence assay; type: functional, organism-based
[26] = Selectivity index, ratio of IC50 for human HeLa cells to IC50 for synchronized ring stage of chloroquine-sensitive Plasmodium falciparum 3D7 infected in human erythrocytes; type: toxicity, cell-based; conditions: read-out: Ratio IC50
Plasmodium falciparum [27] = assay: Synergistic antiplasmodial activity against synchronized schizont stage of chloroquine-resistant Plasmodium falciparum INDO infected in human erythrocytes assessed as parasite growth inhibition at FIC90 treated for 12 hrs followed by compound wash out measured after 48 hrs in presence of chloroquine by Giemsa staining based microscopic analysis; type: functional, organism-based
Plasmodium falciparum [28] = assay: Synergistic antiplasmodial activity against synchronized trophozoite stage of chloroquine-resistant Plasmodium falciparum INDO infected in human erythrocytes assessed as parasite growth inhibition at FIC90 treated for 18 to 24 hrs followed by compound wash out measured after 48 to 54 hrs in presence of artemisinin by Giemsa staining based microscopic analysis; type: functional, organism-based

For `C=CCc1cc(/C=C/C(=O)c2cccc(C(=O)/C=C/c3cc(CC=C)c(OC)c(OC)c3)c2)cc(OC)c1OC`, the Activity (Plasmodium falciparum [1]) was “Active”, the Activity (Plasmodium falciparum [2]) was “Active” and the Activity (Plasmodium falciparum [3]) was “Active”. The Activity (Plasmodium falciparum [4]) was “Active”, the Activity (Plasmodium falciparum [5]) was “Tde” and the “Ratio IC50” value [6] was 1.5. For the same compound, the Activity (Plasmodium falciparum [7]) was “inactive”, the “fractional inhibitory concentration index (FICI)” value (Plasmodium falciparum [8]) was 0.46 - 0.58 and the Activity (Plasmodium falciparum [9]) was “inactive”. The “fractional inhibitory concentration index (FICI)” value (Plasmodium falciparum [10]) was 0.7 - 1.23, the Activity (Plasmodium falciparum [11]) was “Active” and the Activity (Plasmodium falciparum [12]) was “Active”. The Activity (Plasmodium falciparum [13]) was “Active”, the “fractional inhibitory concentration index (FICI)” value (Plasmodium falciparum [14]) was 1.38 - 3.34 and the “Ratio IC50” value (Plasmodium falciparum [15]) was 20 - 311. The Activity (Plasmodium falciparum [16]) was “Active”, the Activity (Plasmodium falciparum [17]) was “Active” and the IC50 (Plasmodium falciparum [18]) was 2.5 µM. For the same compound, the “Ratio IC50” value [19] was 1.4, the Activity (Plasmodium falciparum [20]) was “Active” and the Activity (Plasmodium falciparum [21]) was “inactive”. For the same compound, the Activity (Plasmodium falciparum [22]) was “Active”, the Activity (Plasmodium falciparum [23]) was “Active” and the Activity (Plasmodium falciparum [24]) was “Active”. For the same compound, the IC50 (Plasmodium falciparum [25]) was 3.8 µM, the selectivity ratio [26] was 11.2 and the Activity (Plasmodium falciparum [27]) was “Active”. The Activity (Plasmodium falciparum [28]) was “Active”.
